Where two headings read alike, the source gives them in different places. Blank lines part the entries; values can stand above or below the compound they belong to. Where a SMILES comes first, the peptide text is derived from it. [ ]: non-standard residue; d: D form. The star is where a group is joined. DOTA = O=C(O)CN1CCN(CC(=O)O)CCN(CC(=O)*)CCN(CC(=O)O)CC1; 1Nal = N[C@@H](Cc1cccc2ccccc12)C(=O)O; NMeNle = CCCC[C@H](NC)C(=O)O
What was measured:
[1] = biodistribution: uptake in normal tissues; assay type: in vivo, athymic BALB/c nude mice
Experimental: Biodistribution studies evaluating the tumour uptake of the radiolabelled inventive CCK2R targeting peptide analogues were performed in 7-week-old female athymic BALB/c nude mice (Charles River, Sulzfeld, Germany). All animal experiments were conducted in compliance with the Austrian animal protection laws and with the approval of the Austrian Ministry of Science. For the induction of tumour xenografts, A431-CCK2R and A431-mock cells were injected subcutaneously in the right and left flank respectively (2 million cells in 200 μl). When tumours had reached a size of approximately 0.2 ml biodistribution studies were carried out. Groups of 4 mice were injected intravenously via a lateral tail vein with the peptidomimetics of the present invention, labelled with ^111In (approximately 0.2 MBq and 0.02 nmol peptidomimetic), with ^68Ga (approximately 0.8 MBq and 0.02-0.03 nmol peptidomimetic), with ^177Lu (approximately 0.5 MBq and 0.02 nmol peptidomimetic) or with ^99mTc (approximately 0.3 MBq and 0.02 nmol peptidomimetic). After a time period of 1 or 4 h post-injection (p.i.) the animals were sacrificed by cervical dislocation, tumours and other tissues (blood, lung, heart, muscle, bone, spleen, intestine, liver, kidneys, stomach, pancreas) were removed, weighed, and their radioactivity measured in the gamma counter. Results were expressed as percentage of injected activity per gram tissue (% IA/g) and tumour to organ activity ratios were calculated from the activity measured in the dissected tissues. In FIG. 4 the results of the biodistribution studies at 4 h p.i. are summarized for the ^111In-labelled peptidomimetics of the present invention in comparison with ^111In-DOTA-MGS1 and ^111In-DOTA-MGS4 (Klingler M et al., Eur J Nucl Med Mol Imaging 2017, 44: S228). In FIG. 5 the results for the model peptidomimetics of the present invention, DOTA-MGS5 and HYNIC-MGS5, radiolabelled with different radiometals are shown for different time points of 1 or 4 h p.i. […] The uptake in A431-mock tumour xenografts with values <1% IA/g was very low confirming the high receptor-specific tumour uptake. […] A combination of high stability and increased protein binding in vivo seems therefore to result in an optimal protection of the radioligand against enzymatic degradation in blood allowing reaching an extremely high tumour uptake.

[2] = target: T1, human CCK2R (Homo sapiens, UniProt P32239); experiment: CCK2R competition binding assay against [125I]Tyr12-gastrin-I on A431-CCK2R cells
T1 construct: expressed in transfected cells; host or cells: A431 human epidermoid carcinoma cells (A431-CCK2R), plasmid pCR3.1, provided by Dr. Luigi Aloj
T1 sequence (P32239 1-447): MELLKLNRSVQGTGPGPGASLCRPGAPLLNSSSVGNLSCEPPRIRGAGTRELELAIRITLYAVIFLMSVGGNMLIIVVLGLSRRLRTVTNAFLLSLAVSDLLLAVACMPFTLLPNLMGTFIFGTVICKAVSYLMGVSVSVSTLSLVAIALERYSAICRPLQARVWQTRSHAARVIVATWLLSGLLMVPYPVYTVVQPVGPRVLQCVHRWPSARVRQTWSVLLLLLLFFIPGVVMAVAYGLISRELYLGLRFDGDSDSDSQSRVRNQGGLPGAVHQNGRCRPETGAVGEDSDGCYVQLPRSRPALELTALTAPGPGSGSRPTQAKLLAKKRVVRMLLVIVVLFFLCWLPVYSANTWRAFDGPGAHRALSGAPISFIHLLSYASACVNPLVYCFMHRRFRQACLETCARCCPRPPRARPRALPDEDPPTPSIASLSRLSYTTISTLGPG
Experimental: Affinity for CCK2R was studied in A431 human epidermoid carcinoma cells stably transfected with the plasmid pCR3.1 containing the full coding sequence for the human CCK2R (A431-CCK2R) kindly provided by Dr. Luigi Aloj (Aloj L et al., J Nucl Med 2004, 45: 485-494). […] Radioiodination of gastrin-1 was carried out using the chloramine-T method. Non-carrier-added [^125I-Tyr^12]gastrind was obtained by HPLC purification and stored in aliquots at −20° C. Binding assays were carried out in 96-well filter plates (MultiScreenHTS-FB, Merck Group, Darmstadt, Germany) pretreated with 10 mM TRIS/139 mM NaCl pH 7.4 (2×250 μl). For the assay a number of 200,000-400,000 A431-CCK2R cells per well was prepared in 35 mM HEPES buffer pH 7.4 containing 10 mM MgCl2, 14 μM bacitracin and 0.5% BSA (a hypotonic solution disturbing the integrity of the cell membranes). The cells were incubated in triplicates with increasing concentrations of the peptidomimetics (0.0003 to 10,000 nM, for example 0.001 to 1000 nM) and [^125I-Tyr^12]gastrin-I (20,000-60,000 cpm) for 1 h at RT. Incubation was interrupted by filtration of the medium and rapid rinsing with ice-cold 10 mM TRIS/139 mM NaCl pH 7.4 (2×200 μl) and the filters were counted in the gamma-counter. Half maximal inhibitory concentration (IC50) values were calculated following nonlinear regression with Origin software (Microcal Origin 6.1, Northampton, MA) and a representative assay was chosen for comparison.

[3] = system: serum proteins; experiment: protein binding to serum proteins (Sephadex G-50 size-exclusion chromatography); assay type: in vitro ADME; details: 37° C.; for fraction unbound at 4 h, 500 pmol/mL / fraction unbound at 24 h, 500 pmol/mL: fresh human serum; for fraction unbound at 4 h, 500 pmol/mL: read-out: Percentage of radioligand bound to serum proteins after 4 h incubation (converted); for fraction unbound at 24 h, 500 pmol/mL: read-out: Percentage of radioligand bound to serum proteins after 24 h incubation (converted); for Percentage of radioligand bound to serum proteins after 24 h incubation: human serum
Experimental: Additionally, protein binding to serum proteins was investigated. For this purpose the ^111In-labelled peptidomimetics were incubated in duplicates in fresh human serum at 37° C. (500 pmol/mL) and analyzed after 4 and 24 h by Sephadex G-50 size-exclusion chromatography (GE Healthcare Illustra, Little Chalfont, UK). The percentage of protein binding was determined by measuring the column and the eluate in a 2480 Wizard 2 automatic gamma-counter (Perkin Elmer Life Sciences and Analytical Sciences, Turku, F).

[4] = stability in vivo (radio-HPLC of blood sample); details: BALB/c mice, i.v., 10 min p.i.
Experimental: To further characterise the stability of the radiolabelled peptidomimetics in vivo, metabolic studies were carried out in 5-6-week-old female BALB/c mice (Charles River, Sulzfeld, Germany) injected intravenously with the ^111In- and […] peptidomimetics. All animal experiments were conducted in compliance with the Austrian animal protection laws and with the approval of the Austrian Ministry of Science. To allow monitoring of the metabolites by radio-HPLC, mice were injected with a higher amount of radioactivity (5-15 MBq ^111In and 20-40 MBq ^177Lu, corresponding to 1-2 nmol total peptide) through a lateral tail vein and euthanized by cervical dislocation 10 or 30 min post injection (p.i.). A sample of blood was collected and the degradation was assessed by radio-HPLC.

[5] = cited from earlier work
[6] = in vivo, Nock et al. 2014; cited from earlier work
[7] = CCK2R expressing organ, 1 or 4 h p.i.
[8] = displacement of [125I]Tyr12-gastrin-I, A431-CCK2R cells, 1 h at RT, read-out: IC50
[9] = female, athymic BALB/c nude, mouse, kidneys, iv, total radioactivity, 1 or 4 h p.i. (111In-labelled series: 4 h p.i.), read-out: kidney uptake

SMILES: CCCC[C@@H](C(=O)N[C@@H](CC(=O)O)C(=O)N[C@@H](Cc1ccc2ccccc2c1)C(N)=O)N(C)C(=O)[C@H](Cc1c[nH]c2ccccc12)NC(=O)CNC(=O)[C@H](Cc1ccc(O)cc1)NC(=O)[C@H](C)NC(=O)[C@@H](CCC(=O)O)NC(=O)CN1CCN(CC(=O)O)CCN(CC(=O)O)CCN(CC(=O)O)CC1 [DOTA-MGS5-2, DOTA-DGlu-Ala-Tyr-Gly-Trp-(N-Me)Nle-Asp-2Nal-NH2]
IC50 [2, 8]: 1.6 ± 0.4 nM

SMILES: CSCC[C@H](NC(=O)[C@H](Cc1c[nH]c2ccccc12)NC(=O)CNC(=O)[C@H](Cc1ccc(O)cc1)NC(=O)[C@H](C)NC(=O)[C@@H](CCC(=O)O)NC(=O)[C@@H](CCC(=O)O)NC(=O)[C@@H](CCC(=O)O)NC(=O)[C@@H](CCC(=O)O)NC(=O)[C@@H](CCC(=O)O)NC(=O)[C@@H](CCC(=O)O)NC(=O)CN1CCN(CC(=O)O)CCN(CC(=O)O)CCN(CC(=O)O)CC1)C(=O)N[C@@H](CC(=O)O)C(=O)N[C@@H](Cc1ccccc1)C(N)=O [PP-F11, reference compound]
IC50 [2]: 0.4 ± 0.1 nM

SMILES: CSCC[C@H](NC(=O)[C@H](Cc1c[nH]c2ccccc12)NC(=O)CNC(=O)[C@H](Cc1ccc(O)cc1)NC(=O)[C@H](C)NC(=O)[C@@H](CCC(=O)O)NC(=O)CN1CCN(CC(=O)O)CCN(CC(=O)O)CCN(CC(=O)O)CC1)C(=O)N[C@@H](CC(=O)O)C(=O)N[C@@H](Cc1ccccc1)C(N)=O [DOTA-MG11, [1,4,7,10-tetraazacyclodocecan-1,4,7,10-tetraacetic acid^0,D-Glu^1,DesGlu^2-6]minigastrin, reference compound] ({DOTA}-[dE]AYGWMDF-NH2)
biological half-life in vivo [5]: below five
IC50 [2, 8]: 0.9 ± 0.5 nM

SMILES: CCCC[C@@H](C(=O)N[C@@H](CC(=O)O)C(=O)N[C@@H](Cc1cccc2ccccc12)C(N)=O)N(C)C(=O)[C@H](Cc1c[nH]c2ccccc12)NC(=O)CNC(=O)[C@@H]1CCCN1C(=O)[C@H](Cc1ccc(O)cc1)NC(=O)[C@@H](CCC(=O)O)NC(=O)CN1CCN(CC(=O)O)CCN(CC(=O)O)CCN(CC(=O)O)CC1 [DOTA-MGS10, DOTA-DGlu-Tyr-Pro-Gly-Trp-(N-Me)Nle-Asp-1Nal-NH2] ({DOTA}-[dE]YPGW[NMeNle]D[1Nal]-NH2)
IC50 [2, 8]: 0.9 ± 0.2 nM

SMILES: CCCC[C@@H](C(=O)N[C@@H](CC(=O)O)C(=O)N[C@@H](Cc1cccc2ccccc12)C(N)=O)N(C)C(=O)[C@H](Cc1c[nH]c2ccccc12)NC(=O)CNC(=O)[C@H](Cc1ccc(O)cc1)NC(=O)[C@@H]1CCCN1C(=O)[C@@H](CCC(=O)O)NC(=O)CN1CCN(CC(=O)O)CCN(CC(=O)O)CCN(CC(=O)O)CC1 [DOTA-MGS8, DOTA-DGlu-Pro-Tyr-Gly-Trp-(N-Me)Nle-Asp-1Nal-NH2] ({DOTA}-[dE]PYGW[NMeNle]D[1Nal]-NH2)
IC50 [2, 8]: 1.6 ± 0.2 nM

SMILES: CCCC[C@@H](C(=O)N[C@@H](CC(=O)O)C(=O)N[C@@H](Cc1cccc2ccccc12)C(N)=O)N(C)C(=O)[C@H](Cc1c[nH]c2ccccc12)NC(=O)CNC(=O)[C@H](Cc1ccc(O)cc1)NC(=O)[C@H](C)NC(=O)[C@@H](CCC(=O)O)NC(=O)CN1CCN(CC(=O)O)CCN(CC(=O)O)CCN(CC(=O)O)CC1 [DOTA-MGS5, DOTA-DGlu-Ala-Tyr-Gly-Trp-(N-Me)Nle-Asp-1Nal-NH2]
IC50 [2, 8]: 0.4 ± 0.2 nM
tissue uptake [1, 9]: 4 to 6 %ID/g
tissue uptake ([1]; female, athymic BALB/c nude, mouse, pancreas, iv, total radioactivity, CCK2R expressing organ, 1 or 4 h p.i., read-out: uptake in pancreas): 2 to 3 %ID/g
tissue uptake ([1]; female, athymic BALB/c nude, mouse, stomach, iv, total radioactivity, CCK2R expressing organ, 1 or 4 h p.i., read-out: uptake in stomach): 5 to 8 %ID/g

Further lines, with some results ahead:

kidney uptake ([1]; 1 or 4 h p.i. (111In-labelled series: 4 h p.i.)): 8 % IA/g
uptake in pancreas [1, 7]: 7 % IA/g
uptake in stomach [1, 7]: 13 % IA/g
SMILES: CCCC[C@@H](C(=O)N[C@@H](CC(=O)O)C(=O)N[C@@H](Cc1cccc2ccccc12)C(N)=O)N(C)C(=O)[C@H](Cc1c[nH]c2ccccc12)NC(=O)CNC(=O)[C@H](Cc1ccc(O)cc1)NC(=O)[C@H](C)NC(=O)[C@@H](CCC(=O)O)NC(=O)c1ccc(NN)nc1 [^99mTc-HYNIC-MGS5, metal not drawn]

fraction unbound at 4 h, 500 pmol/mL [3]: 0.734
fraction unbound at 24 h, 500 pmol/mL [3]: 0.722
Percentage of radioligand bound to serum proteins after 24 h incubation [3]: ~30%
intact radioligand present in the blood at 10 min p.i. [4]: 93.9±1.2%
tissue uptake at 4 h ([1]; female, athymic BALB/c nude, mouse, intestine and liver, iv, 0.02 nmol peptidomimetic, total radioactivity, 4 h p.i.): ~2 %ID/g
tissue uptake [1, 9]: 20.7 ± 4.4 %ID/g
SMILES: CCCC[C@@H](C(=O)N[C@@H](CC(=O)O)C(=O)N[C@@H](Cc1cccc2ccccc12)C(N)=O)N(C)C(=O)[C@H](Cc1c[nH]c2ccccc12)NC(=O)CNC(=O)[C@H](Cc1ccc(O)cc1)NC(=O)[C@H](C)NC(=O)[C@@H](CCCCN)NC(=O)CN1CCN(CC(=O)O)CCN(CC(=O)O)CCN(CC(=O)O)CC1 [^111In-DOTA-MGS9, metal not drawn] ({DOTA}-[dK]AYGW[NMeNle]D[1Nal]-NH2)

fraction unbound at 4 h, 500 pmol/mL [3]: 0.899
fraction unbound at 24 h, 500 pmol/mL [3]: 0.938
Percentage of radioligand bound to serum proteins after 24 h incubation [3]: < 10%
SMILES: CSCC[C@H](NC(=O)[C@H](Cc1c[nH]c2ccccc12)NC(=O)CNC(=O)[C@H](Cc1ccc(O)cc1)NC(=O)[C@H](C)NC(=O)[C@@H](CCC(=O)O)NC(=O)CN1CCN(CC(=O)O)CCN(CC(=O)O)CCN(CC(=O)O)CC1)C(=O)N[C@@H](CC(=O)O)C(=O)N[C@@H](Cc1ccccc1)C(N)=O [^111In-DOTA-MG11, metal not drawn, reference compound] ({DOTA}-[dE]AYGWMDF-NH2)
intact radiopeptide 5 min after injection [6]: 5%

— patent US12049518B2, “Pharmacokinetics and cholecystokinin-2 receptor (CCK2R) targeting for diagnosis and therapy” (Medizinische Universitat Innsbruck, priority 2017, dated 2024)
